Data as given in patent EP1830856B1, “PREVENTING PATHOLOGICAL INCREASES IN THE RATE OF NERVE CELL SUICIDE IN IMMATURE NERVOUS SYSTEMS” (Olney, John W., priority 2004, dated 2006).

Assays:
[1] = tested on: apoptosis induced by anti-convulsants such as phenytoin and carbamazepine; settings: tissue culture model; only in a dose range well above the plasma levels considered therapeutic in humans; Nonaka et al., 1998; cited from earlier work
ERK = settings: infant mice; within less than 30 minutes after ethanol administration
AKT = settings: infant mice; within 30 minutes after administration of ethanol
immature brains = settings: Ikonomidou et al., 2000; cited from earlier work
[2] = tested on: neuroapoptosis triggered by a cocktail of anesthetic drugs; settings: immature rats undergoing anesthesia; subcutaneous; Beals et al, 2003; cited from earlier work

[Li] [Lithium]
antiapoptotic action [1]: act as an antiapoptotic agent

CCO [ethanol]
activated isoforms of ERK (ERK): rapid decrease
activated isoform of AKT (AKT): marked suppression
neuroapoptosis responses in immature brains (immature brains): triggers especially severe neuroapoptosis responses

COc1ccc2[nH]cc(CCNC(C)=O)c2c1 [melatonin]
protection against pathological neuroapoptosis (effects of pretreatment) [2]: only modest
